Assay results published in ChEMBL document CHEMBL1287790, “Design, synthesis and SAR of thienopyridines as potent CHK1 inhibitors” (Bioorg Med Chem Lett, 2010).

Molecular target: T1, Serine/threonine-protein kinase Chk1 (Homo sapiens, UniProt O14757)
T1 sequence (O14757 whole entry): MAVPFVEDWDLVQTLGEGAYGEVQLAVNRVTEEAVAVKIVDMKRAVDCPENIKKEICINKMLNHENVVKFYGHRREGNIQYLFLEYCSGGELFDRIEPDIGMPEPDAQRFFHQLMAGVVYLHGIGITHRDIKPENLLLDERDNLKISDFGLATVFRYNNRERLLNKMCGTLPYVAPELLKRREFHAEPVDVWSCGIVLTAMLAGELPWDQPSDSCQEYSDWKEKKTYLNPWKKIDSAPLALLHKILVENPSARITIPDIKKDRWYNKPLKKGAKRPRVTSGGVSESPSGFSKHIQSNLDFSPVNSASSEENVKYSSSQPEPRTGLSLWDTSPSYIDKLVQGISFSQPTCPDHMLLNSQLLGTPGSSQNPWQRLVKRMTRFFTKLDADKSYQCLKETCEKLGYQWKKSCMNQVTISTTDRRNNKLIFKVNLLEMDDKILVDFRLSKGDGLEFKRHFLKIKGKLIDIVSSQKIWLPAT
Test: Inhibition of His-tagged CHK1 after 2 hrs by liquid scintillation counting

First: NC(=O)c1cnc(N[C@H]2CCCNC2)c2cc(-c3ccc(F)c(Cl)c3)sc12
Second: NC(=O)c1cnc(N[C@H]2CCCNC2)c2cc(-c3ccc(Cl)c(F)c3)sc12
The IC50 of the first is 2.2-fold lower: 4 nM for the first, 9 nM for the second.

Compared with `CS(=O)(=O)c1ccc(-c2cc3c(N[C@H]4CCCNC4)ncc(C(N)=O)c3s2)cc1`, `CN(C)S(=O)(=O)c1ccc(-c2cc3c(N[C@H]4CCCNC4)ncc(C(N)=O)c3s2)cc1` is 8-fold higher in IC50: 2 nM for the first, 16 nM for the second. The first is the more potent here.

Compared with `NC(=O)c1cnc(N[C@H]2CCCNC2)c2cc(-c3ccc4ncccc4c3)sc12`, `NC(=O)c1cnc(N[C@H]2CCCNC2)c2cc(-c3cnc4ccccc4c3)sc12` is 6.8-fold higher in IC50: 5 nM for the first, 34 nM for the second.

Going from `NC(=O)c1cnc(N[C@H]2CCCNC2)c2cc(-c3ccccc3)sc12` to `NC(=O)c1cnc(N[C@H]2CCCNC2)c2cc(-c3cccc(N)c3)sc12`, the IC50 falls from 4 nM to 2 nM (2-fold).

Compared with `NC(=O)c1cnc(N[C@H]2CCCNC2)c2cc(-c3cccnc3)sc12`, `NC(=O)c1cnc(N[C@H]2CCCNC2)c2cc(-c3ccncc3)sc12` is 1.7-fold lower in IC50: 5 nM for the first, 3 nM for the second. The second is the more potent here.

`COc1ccc(-c2cc3c(N[C@H]4CCCNC4)ncc(C(N)=O)c3s2)cn1` and `COc1ccc(-c2cc3c(N[C@H]4CCCNC4)ncc(C(N)=O)c3s2)cc1` are the same in IC50: 3 nM for the first, 3 nM for the second.

Going from `NC(=O)c1cnc(N[C@H]2CCCNC2)c2cc(-c3ccc(F)c(F)c3)sc12` to `NC(=O)c1cnc(N[C@H]2CCCNC2)c2cc(-c3ccc(F)cc3F)sc12`, the IC50 rises from 2 nM to 9 nM (4.5-fold). The first is the more potent here.

`NC(=O)c1cnc(N[C@H]2CCCNC2)c2cc(-c3ccc(Oc4ccccc4)cc3)sc12` and `NC(=O)c1cnc(N[C@H]2CCCNC2)c2cc(-c3ccc(F)cc3)sc12` are within 1.5-fold of each other in IC50: 4 nM for the first, 5 nM for the second.

Going from `Cn1ccc2cc(-c3cc4c(N[C@H]5CCCNC5)ncc(C(N)=O)c4s3)ccc21` to `NC(=O)c1cnc(N[C@H]2CCCNC2)c2cc(-c3ccc4sccc4c3)sc12`, the IC50 falls from 8 nM to 4 nM (2-fold). The second is the more potent here.

Compared with `NC(=O)c1cnc(N[C@H]2CCCNC2)c2nc(-c3ccc(Cl)cc3)sc12`, `NC(=O)c1cnc(N[C@@H]2CCCNC2)c2cc(-c3ccc(Cl)cc3)sc12` is 23-fold higher in IC50: 9 nM for the first, 211 nM for the second. The first is the more potent here.

`NC(=O)c1cnc(NCC2CCCCN2)c2cc(-c3ccc(Cl)cc3)sc12` (centres undefined) and `NC(=O)c1cnc(NC[C@@H]2CCCN2)c2cc(-c3ccc(Cl)cc3)sc12` are within 1.5-fold of each other in IC50: 292 nM for the first, 197 nM for the second.

`NC(=O)c1cnc(N[C@H]2CCCNC2)c2cc(-c3cccc(N4CCCC4)c3)sc12` and `NC(=O)c1cnc(N[C@H]2CCCNC2)c2cc(-c3cccc(Cl)c3)sc12` are within 1.5-fold of each other in IC50: 3 nM for the first, 4 nM for the second.

`CN(C)C(=O)c1ccc(-c2cc3c(N[C@H]4CCCNC4)ncc(C(N)=O)c3s2)cc1` and `NC(=O)c1ccc(-c2cc3c(N[C@H]4CCCNC4)ncc(C(N)=O)c3s2)cc1` are the same in IC50: 1 nM for the first, 1 nM for the second.

Compared with `NC(=O)c1cnc(N[C@H]2CCCNC2)c2cc(-c3ccc(C(F)(F)F)cc3)sc12`, `NC(=O)c1cnc(N[C@H]2CCCNC2)c2cc(-c3ccc(OC(F)(F)F)cc3)sc12` is 1.8-fold higher in IC50: 5 nM for the first, 9 nM for the second.

Compared with `NC(=O)c1cnc(NC2CNC2)c2cc(-c3ccc(Cl)cc3)sc12`, `NC(=O)c1cnc(N[C@H]2CCNC2)c2cc(-c3ccc(Cl)cc3)sc12` is 50-fold lower in IC50: 707 nM for the first, 14 nM for the second. The second is the more potent here.

First: NC(=O)c1cnc(N[C@H]2CCCNC2)c2cc(-c3cccc(CO)c3)sc12
Second: N#Cc1cccc(-c2cc3c(N[C@H]4CCCNC4)ncc(C(N)=O)c3s2)c1
The IC50 of the first is 2.3-fold lower: 3 nM for the first, 7 nM for the second.

First: CC(=O)Nc1cccc(-c2cc3c(N[C@H]4CCCNC4)ncc(C(N)=O)c3s2)c1
Second: CN(C)S(=O)(=O)c1cccc(-c2cc3c(N[C@H]4CCCNC4)ncc(C(N)=O)c3s2)c1
The IC50 of the first is 10-fold lower: 2 nM for the first, 20 nM for the second.

First: NC(=O)c1cnc(N2CCC[C@@H](N)C2)c2cc(-c3ccc(Cl)cc3)sc12
Second: NC(=O)c1cnc(N[C@@H]2CCCC[C@H]2N)c2cc(-c3ccc(Cl)cc3)sc12
The IC50 of the first is 180-fold lower: 148 nM for the first, 27100 nM for the second.

`COc1ccccc1-c1cc2c(N[C@H]3CCCNC3)ncc(C(N)=O)c2s1` and `NC(=O)c1cnc(N[C@H]2CCCNC2)c2cc(-c3ccccc3Cl)sc12` are within 1.5-fold of each other in IC50: 19 nM for the first, 21 nM for the second.

Compared with `CNCCNc1ncc(C(N)=O)c2sc(-c3ccc(Cl)cc3)cc12`, `NC(=O)c1cnc(NC[C@@H]2CSCN2)c2cc(-c3ccc(Cl)cc3)sc12` is 130-fold higher in IC50: 7 nM for the first, 937 nM for the second.

First: NC(=O)c1cnc(N[C@H]2CCCNC2)c2cc(-c3ncccn3)sc12
Second: NC(=O)c1cnc(N[C@H]2CCCNC2)c2cc(-c3cc(F)cc(F)c3)sc12
The IC50 of the first is 12-fold higher: 60 nM for the first, 5 nM for the second.

`NC(=O)c1cnc(N[C@H]2CCCNC2)c2cc(C#Cc3cccnc3)sc12` and `NC(=O)c1cnc(N[C@H]2CCCNC2)c2cc(Br)sc12` are within 1.5-fold of each other in IC50: 67 nM for the first, 56 nM for the second.

Compared with `NC(=O)c1cnc(N[C@H]2CCCNC2)c2cc(-c3ccc4cc[nH]c4c3)sc12`, `NC(=O)c1cnc(N[C@H]2CCCNC2)c2cc(-c3ccc4[nH]ccc4c3)sc12` is 3.8-fold higher in IC50: 16 nM for the first, 60 nM for the second. The first is the more potent here.

First: NC(=O)c1cnc(N[C@H]2CCCNC2)c2ccsc12
Second: COc1ccc(F)cc1-c1cc2c(N[C@H]3CCCNC3)ncc(C(N)=O)c2s1
The IC50 of the first is 30-fold higher: 717 nM for the first, 24 nM for the second.

First: NC(=O)c1cnc(N[C@H]2CCCCNC2)c2cc(-c3ccc(Cl)cc3)sc12
Second: NC(=O)c1cnc(N[C@H]2CCCNC2)c2sc(-c3ccc(Cl)cc3)cc12
The IC50 of the first is 1500-fold lower: 3 nM for the first, 4580 nM for the second.

Going from `NC(=O)Nc1sc(-c2ccc(Cl)cc2)cc1C(=O)NC1CCCCC1` to `NC(=O)Nc1sc(-c2ccc(Cl)cc2)cc1C(=O)N1CCCC[C@H](N)C1`, the IC50 rises from 2 nM to 746 nM (370-fold).

Going from `NC(=O)c1cnc(N[C@H]2CCCNC2)c2cc(-c3cc4ccccc4o3)sc12` to `NC(=O)c1cnc(N[C@H]2CCCNC2)c2cc(-c3cccc4[nH]ccc34)sc12`, the IC50 rises from 2 nM to 5 nM (2.5-fold).
